According to patent publication US20240041899A1, “SOLID PREPARATION” (ASKA Pharmaceutical Co., Ltd., priority 2020, published 2024):

Assays:
Assay type in all cases: in vivo
[1] = system: lower urinary tract obstruction model of rats (female); experiment: Test Example 1: urination function in lower urinary tract obstruction model of female rats; conditions: oral once a day 2 weeks, Compound B 3 mg/kg and 10 mg/kg
Source text: A lower urinary tract obstruction model of rats was used as a test system. A test substance was orally administered to the lower urinary tract obstruction model repeatedly over two (2) weeks to examine the action on the urination function in the lower urinary tract obstruction model.
More specifically, the rats (female, Crl:CD(SD), 8-week-old; Charles River Laboratories Japan, Inc.) were operated to form lower urinary tract obstruction and repeatedly received oral administration of the test substance at a frequency of once a day over two (2) weeks. After the completion of the administration, each rat was subjected to bladder catheterization under anesthesia, cystometry under no anesthesia, then cystometry under urethane anesthesia, and euthanasia under deep anesthesia, and the tissues (bladder, kidney) of the rat were extracted or surgically removed. As a normal group, the rats without operation for forming lower urinary tract obstruction were used.
The test system, the test substances, and the dosage are as follows. • Normal group: 0.5 v/v % Polysorbate 80 solution, 10 mL/kg (n=6) • Solvent group (control group): 0.5 v/v % Polysorbate 80 solution, 10 mL/kg (n=15) • Group A: Compound A, 10 mg/kg (n=15) • Group B3: Compound B, 3 mg/kg (n=7) • Group B10: Compound B, 10 mg/kg (n=7)
After urination, the residual urine was aspirated from the outlet end of the catheter placed in the bladder to measure the volume (mL) of the residual urine.
After urination, the weight of the voided urine was measured to determine the voided volume (g=mL), and then the urination efficiency was calculated by the following equation: Urination efficiency (%)=[(Voided volume (mL))/(Voided volume (mL)+Residual urine volume (mL))]×100
Bladder capacity (mL)=Voided volume (mL)+Residual urine volume (mL)
Moreover, the wet weight of the extracted bladder and that of the extracted kidney were measured.

[2] = system: ovariectomized rats; experiment: Test Example 5: antiprogesterone activity, uterine weight associated with rat deciduoma formation; conditions: Rattus norvegicus, 192 h; ovariectomized rats, estrone + progesterone, oral 3 mg/kg once a day 8 days, compared with the solvent group; read-out: inhibition rate (increase of uterine weight, deciduoma formation)
Experimental: For the compound A and the compound D (mifepristone), the antiprogesterone activity was measured. Specifically, a sex hormone and a test substance were repeatedly administered to ovariectomized rats as a test system to examine the antiprogesterone action (antiprogesterone activity) based on, as an index, the fluctuation of the uterine weight (the inhibitory action relative to the increase of the weight) associated with rat deciduoma formation.
More specifically, rats (female, Crl:CD(SD), 5-week-old: Charles River Laboratories Japan, Inc.) were subjected to ovariectomy, and from one (1) week after the ovariectomy, a high dose estrone of 5 μg/one animal was hypodermically administered to the rats once a day for three (3) days. From the day after one day rest period, the rats received, once a day over eight (8) days, hypodermic administration of a low dose estrone (1 μg/one animal), intramuscular administration of progesterone (6 mg/kg), and oral administration of a test substance. In the middle of the administration, on Day 4 of the start of administration, the rats were subjected to a stimulation treatment of decidualization reaction to the right uterus. The day after the final administration, the uterine weight (right uterine body) was measured (n=6). Group E was subjected to ovariectomy and a stimulation treatment of decidualization reaction but was not subjected to a hormone treatment.
Group E: rats with ovariectomy without hormone treatment 0.5 v/v % Polysorbate 80 solution, 10 mL/kg (n=6) • Solvent group (control group): 0.5 v/v % Polysorbate 80 solution, 10 mL/kg (n=6) • Group A3: Compound A, 3 mg/kg (n=6) • Group A10: Compound A, 10 mg/kg (n=6) • Group A30: Compound A, 30 mg/kg (n=6) • Group D: Compound D (mifepristone), 3 mg/kg (n=6)

[3] = system: rats having the urination disorder associated with diabetes; experiment: Test Example 6: urination disorder model associated with streptozocin-induced diabetes, compound A versus compound C; conditions: STZ diabetes model
Experimental: As described below, a model of a urination disorder associated with streptozocin-induced diabetes was prepared as a urination disorder model in accordance with Test Example 4 to evaluate the effects of the compound A and the compound C on a urination disorder. This model has no benign prostatic hyperplasia and is a model of a urination disorder associated with neuropathy and smooth muscle contraction disorder.
The body weights of Rats (male, Crl:CD(SD), 5-week-old; Charles River Laboratories Japan, Inc.) were measured. On the basis of the body weight, the rats were grouped or divided into two (2) groups. The day after the rats were grouped, a first group received intraperitoneal administration of a citrate buffer (pH 4.5) (10 mL/kg) having a concentration of 0.1 mmol/L, and a second group received intraperitoneal administration of streptozocin (STZ; Sigma-Aldrich) (50 mg/kg). Streptozocin (STZ) was administered in the form of a solution of streptozocin having a concentration of 5 mg/mL in the citrate buffer.
About one (1) week after streptozocin (STZ) was administered, the body weight and the fasting blood glucose were measured. In the streptozocin (STZ) administration group (the second group), individuals having a fasting blood glucose level of not less than 300 mg/dL were used as animals with induced diabetes. These animals with induced diabetes are a model having no abnormality of the prostate (having no benign prostatic hyperplasia). On the basis of the body weight and the fasting blood glucose level, the animals (models) with induced diabetes were grouped or divided into three (3) groups by randomized, multivariable block allocation.
To the three model groups with induced diabetes, a 0.5 v/v % Polysorbate 80 solution (0.5% P) (10 mL/kg), the compound A (3 mg/kg), and the compound C (dutasteride) (0.3 mg/kg) were orally administered, respectively, wherein the administration schedule in all groups was a frequency of once a day, only on weekdays, over four (4) weeks. Moreover, to the above-mentioned first group, a 0.5 v/v % Polysorbate 80 solution (0.5% P) (10 mL/kg) was orally administered in the same administration schedule (normal group). On the last day of administration, a cannula was inserted into and secured to the dome of the bladder under isoflurane anesthesia, and cystometry (Cystometogram, CMG) was conducted in the order of under awake condition and under urethane anesthesia to measure the intravesical pressure, the voided volume, and the residual urine volume. After the completion of the measurement, the blood was collected under deep isoflurane anesthesia, and then the prostate (ventral prostate, dorsolateral prostate) was extracted and each was weighed. Moreover, the blood glucose level in the collected blood was measured.
Normal group: citrate buffer 10 mL/kg (intraperitoneal administration), 0.5% P 10 mL/kg (oral administration) (n=10) • Solvent group (control group): STZ 50 mg/kg (intraperitoneal administration), 0.5% P 10 mL/kg (oral administration) (n=10) • Group A3: STZ 50 mg/kg (intraperitoneal administration), Compound A 3 mg/kg (oral administration) (n=10) • Group C0.3: STZ 50 mg/kg (intraperitoneal administration), Compound C (dutasteride) 0.3 mg/kg (oral administration) (n=10)
Urination parameter: In the same manner as in Test Example 4, the residual urine volume (mL) and the urination efficiency (%) were determined as urination parameters in each urination, and the average value of two measurements was taken as a measured value of each individual.
Prostate weight: In the same manner as in Test Example 4, the weight of the prostate (ventral prostate, dorsolateral prostate, and whole) was converted to a tissue weight per 100 g of the body weight. For Group A3, which received the compound A, and Group C0.3, which received the compound C, the inhibition rate of the weight of the prostate relative to the weight of the prostate in the solvent group was calculated (with one decimal place). […]

[4] = female rats, lower urinary tract obstruction, vs control group
[5] = Compound C 0.3 mg/kg, in comparison with the solvent group
[6] = Compound C oral 0.3 mg/kg, 4 weeks
[7] = Compound C oral 0.3 mg/kg, relative to solvent group

CC(=O)O[C@]1(C(C)=O)CC[C@H]2[C@@H]3C=C(Cl)C4=CC(=O)OC[C@]4(C)[C@H]3CC[C@@]21C [Compound B, 17α-acetoxy-6-chloro-2-oxa-4,6-pregnadiene-3,20-dione, reference compound]
survival rate ([1]; female lower urinary tract obstruction rats): decreased | wet weights of the bladder and the kidney ([1]; female rats, lower urinary tract obstruction): rather in the direction of increasing | residual urine volume ([1]; female rats, lower urinary tract obstruction, vs control (solvent) group): significantly increased | bladder capacity [1, 4]: significantly increased | urination efficiency [1, 4]: reduced

CC#C[C@]1(O)CC[C@H]2[C@@H]3CCC4=CC(=O)CCC4=C3[C@@H](c3ccc(N(C)C)cc3)C[C@@]21C [Compound D, mifepristone, reference compound]
inhibition at 3 mg/kg [2]: 89.5%

C[C@]12C=CC(=O)N[C@@H]1CC[C@@H]1[C@@H]2CC[C@]2(C)[C@@H](C(=O)Nc3cc(C(F)(F)F)ccc3C(F)(F)F)CC[C@@H]12 [Compound C, dutasteride, reference compound]
position in nomogram analysis (bladder contraction force) ([3]; Compound C 0.3 mg/kg): at almost the same position as the solvent group | therapeutic effect on diabetes ([3]; Compound C 0.3 mg/kg): no therapeutic effect | weights of the ventral prostate, the dorsolateral prostate, and the whole prostate ([3]; Compound C 0.3 mg/kg, compared with the solvent group (P<0.05)): significant decrease | residual urine volume, cystometry (CMG) under awake condition [3, 5]: did not statistically affect | urination efficiency, cystometry (CMG) under awake condition [3, 5]: did not statistically affect | effect on the blood glucose level ([3]; Compound C 0.3 mg/kg, vs solvent group): did not statistically affect | Prostate weight, ventral prostate ([3]; Compound C (dutasteride) oral 0.3 mg/kg, 4 weeks): 58.4 ± 8.4 mg/100 g body weight | Blood glucose level [3, 6]: 984.2 ± 282.0 mg/dL | Prostate weight, dorsolateral prostate [3, 6]: 40.5 ± 6.3 mg/100 g body weight | Prostate weight, whole [3, 6]: 98.9 ± 12.2 mg/100 g body weight | Dorsolateral prostate atrophy rate [3, 7]: (37.5%) | Ventral prostate atrophy rate [3, 7]: (42.7%) | Whole prostate atrophy rate [3, 7]: (40.7%)
